From patent US10040781B2, “Tank-binding kinase inhibitor compounds” (Gilead Sciences, Inc., priority 2014, dated 2018)

Experiments:
TBK1 = TBK1 (Homo sapiens (Human), UniProt Q9UHD2); experiment: TBK1 TR-FRET enzymatic assay;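 note: phosphorylation of a biotinylated Ser/Thr peptide by purified full-length recombinant TBK1, read by TR-FRET after 240 min at 25 °C, IC50 is the geometric mean of at least four runs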
hJAK2 = hJAK2 (Homo sapiens (Human), UniProt O60674); experiment: hJAK2 LANCE TR-FRET enzymatic assay; type: biochemical; details: read-out: JAK2 IC50
IKKε = IKKε (Homo sapiens (Human), UniProt Q14164); experiment: IKKε TR-FRET enzymatic assay; type: biochemical; details: TR-FRET, 2×Km ATP; geometric mean of minimum four determinations; read-out: IKKe IC50
IKKε, sequence (Q14164 whole entry): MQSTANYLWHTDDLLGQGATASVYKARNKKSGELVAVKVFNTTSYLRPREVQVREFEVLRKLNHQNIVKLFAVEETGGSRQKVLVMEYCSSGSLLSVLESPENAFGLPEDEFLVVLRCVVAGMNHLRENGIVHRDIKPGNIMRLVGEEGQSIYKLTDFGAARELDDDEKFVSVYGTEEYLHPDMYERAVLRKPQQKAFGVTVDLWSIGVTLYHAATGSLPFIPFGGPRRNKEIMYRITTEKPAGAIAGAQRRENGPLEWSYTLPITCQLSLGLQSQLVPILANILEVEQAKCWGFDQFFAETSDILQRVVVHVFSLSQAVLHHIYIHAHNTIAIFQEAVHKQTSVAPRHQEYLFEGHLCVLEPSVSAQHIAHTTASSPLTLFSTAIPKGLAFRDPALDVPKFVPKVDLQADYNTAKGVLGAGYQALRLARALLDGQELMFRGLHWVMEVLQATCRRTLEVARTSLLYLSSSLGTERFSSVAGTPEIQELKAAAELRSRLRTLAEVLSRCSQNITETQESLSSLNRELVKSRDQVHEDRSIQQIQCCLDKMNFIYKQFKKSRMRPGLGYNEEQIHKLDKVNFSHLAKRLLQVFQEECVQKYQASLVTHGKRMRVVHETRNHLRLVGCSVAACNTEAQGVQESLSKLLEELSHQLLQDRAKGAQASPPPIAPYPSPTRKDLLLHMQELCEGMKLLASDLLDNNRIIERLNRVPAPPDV

TBK1, sequence (Q9UHD2 whole entry): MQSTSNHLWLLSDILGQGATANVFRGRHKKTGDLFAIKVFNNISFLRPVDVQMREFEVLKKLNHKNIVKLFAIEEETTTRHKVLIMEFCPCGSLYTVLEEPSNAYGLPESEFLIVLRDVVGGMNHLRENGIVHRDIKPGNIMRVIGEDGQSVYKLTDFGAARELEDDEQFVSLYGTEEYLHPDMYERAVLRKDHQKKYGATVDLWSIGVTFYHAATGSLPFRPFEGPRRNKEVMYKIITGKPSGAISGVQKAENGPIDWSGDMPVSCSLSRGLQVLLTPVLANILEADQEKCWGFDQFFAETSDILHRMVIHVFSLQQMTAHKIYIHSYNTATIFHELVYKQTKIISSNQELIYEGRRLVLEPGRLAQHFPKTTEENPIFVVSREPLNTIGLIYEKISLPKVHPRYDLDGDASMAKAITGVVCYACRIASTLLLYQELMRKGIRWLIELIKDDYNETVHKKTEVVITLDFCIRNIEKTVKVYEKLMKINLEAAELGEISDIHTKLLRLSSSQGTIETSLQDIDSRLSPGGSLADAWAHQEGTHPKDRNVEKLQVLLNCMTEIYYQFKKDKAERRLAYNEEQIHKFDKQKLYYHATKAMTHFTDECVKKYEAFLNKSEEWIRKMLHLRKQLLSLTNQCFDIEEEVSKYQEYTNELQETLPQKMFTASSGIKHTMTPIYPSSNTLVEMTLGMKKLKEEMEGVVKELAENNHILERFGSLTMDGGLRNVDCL
hJAK2, sequence (O60674 whole entry): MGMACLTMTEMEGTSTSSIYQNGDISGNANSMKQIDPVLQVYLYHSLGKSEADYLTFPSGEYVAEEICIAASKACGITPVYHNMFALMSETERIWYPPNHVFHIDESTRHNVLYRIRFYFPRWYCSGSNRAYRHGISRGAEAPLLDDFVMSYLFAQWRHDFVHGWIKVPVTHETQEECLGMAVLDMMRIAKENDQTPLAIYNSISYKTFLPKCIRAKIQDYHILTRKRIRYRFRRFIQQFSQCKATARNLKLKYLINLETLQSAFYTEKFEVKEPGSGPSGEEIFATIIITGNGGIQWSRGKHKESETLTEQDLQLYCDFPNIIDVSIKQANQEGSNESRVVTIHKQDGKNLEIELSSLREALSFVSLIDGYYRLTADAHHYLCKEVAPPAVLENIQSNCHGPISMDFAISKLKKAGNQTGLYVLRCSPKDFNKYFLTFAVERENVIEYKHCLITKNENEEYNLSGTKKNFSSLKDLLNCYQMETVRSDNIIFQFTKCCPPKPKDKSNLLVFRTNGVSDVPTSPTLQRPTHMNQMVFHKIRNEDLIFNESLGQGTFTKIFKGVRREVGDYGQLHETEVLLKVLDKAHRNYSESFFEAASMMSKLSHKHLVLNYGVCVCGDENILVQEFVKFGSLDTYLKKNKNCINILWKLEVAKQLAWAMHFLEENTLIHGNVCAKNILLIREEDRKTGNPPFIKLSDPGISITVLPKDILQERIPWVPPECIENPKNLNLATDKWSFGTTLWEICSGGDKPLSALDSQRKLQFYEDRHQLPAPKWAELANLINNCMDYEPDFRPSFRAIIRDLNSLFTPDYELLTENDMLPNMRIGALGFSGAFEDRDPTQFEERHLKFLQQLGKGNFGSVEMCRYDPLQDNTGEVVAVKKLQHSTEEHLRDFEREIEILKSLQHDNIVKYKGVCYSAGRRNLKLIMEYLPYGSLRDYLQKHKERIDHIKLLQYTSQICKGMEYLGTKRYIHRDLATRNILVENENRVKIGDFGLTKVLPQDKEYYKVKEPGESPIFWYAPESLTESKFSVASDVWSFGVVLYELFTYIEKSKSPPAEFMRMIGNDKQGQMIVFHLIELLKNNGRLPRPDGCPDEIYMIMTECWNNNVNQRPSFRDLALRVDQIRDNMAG

Structure (SMILES) | IC50 (TBK1) [nM] | IC50 (hJAK2) [nM] | IC50 (IKKε) [nM]
COc1cc(Nc2ncnc(-c3ccc(N4C[C@H](O)CCC4=O)c(C#N)c3)n2)ccc1N1CCN(C2COC2)CC1 [Example 399, (R)-2-(5-hydroxy-2-oxopiperidin-1-yl)-5-(4-((3-methoxy-4-(4-(oxetan-3-yl)piperazin-1-yl)phenyl)amino)-1,3,5-triazin-2-yl)benzonitrile] | 152 | 174 | 270
C[C@H](O)C(=O)N1CC[C@H](Oc2ccc(-c3ncnc(Nc4ccc(O[C@H]5CCN(C)C[C@H]5F)cc4)n3)cc2C#N)[C@H](F)C1 [Example 400, 2-(((3R,4S)-3-fluoro-1-((S)-2-hydroxypropanoyl)piperidin-4-yl)oxy)-5-(4-((4-(((3R,4S)-3-fluoro-1-methylpiperidin-4-yl)oxy)phenyl)amino)-1,3,5-triazin-2-yl)benzonitrile] | 3 | ≥ 1000 | 1
COCC(=O)N1CC[C@H](Oc2ccc(-c3ncnc(Nc4ccc(N5CCN(C6COC6)CC5)c(F)c4)n3)cc2C#N)[C@H](F)C1 [Example 402, 2-(((3R,4S)-3-fluoro-1-(2-methoxyacetyl)piperidin-4-yl)oxy)-5-(4-((3-fluoro-4-(4-(oxetan-3-yl)piperazin-1-yl)phenyl)amino)-1,3,5-triazin-2-yl)benzonitrile] | 3 | ≥ 1000 | 3
CN1C(=O)CC[C@H]1C(=O)N1CC[C@H](Oc2ccc(-c3ncnc(Nc4ccc(N5CCN(C6COC6)CC5)cc4)n3)cc2C#N)[C@H](F)C1 [Example 407, 2-(((3R,4S)-3-fluoro-1-((S)-1-methyl-5-oxopyrrolidine-2-carbonyl)piperidin-4-yl)oxy)-5-(4-((4-(4-(oxetan-3-yl)piperazin-1-yl)phenyl)amino)-1,3,5-triazin-2-yl)benzonitrile] | 165 | ≥ 1000 | 165
CN1C(=O)CC[C@H]1C(=O)N1CC[C@H](Oc2ccc(-c3ncnc(Nc4ccc(N5CCN(C6COC6)CC5)c(F)c4)n3)cc2C#N)[C@H](F)C1 [Example 408, 2-(((3R,4S)-3-fluoro-1-((S)-1-methyl-5-oxopyrrolidine-2-carbonyl)piperidin-4-yl)oxy)-5-(4-((3-fluoro-4-(4-(oxetan-3-yl)piperazin-1-yl)phenyl)amino)-1,3,5-triazin-2-yl)benzonitrile] | 86 | ≥ 1000 | 119
C[C@@H](O)C(=O)N1C[C@@H](F)[C@@H](Oc2ccc(-c3ncnc(Nc4ccc(N5CCN(C6COC6)CC5)cc4)n3)cc2C#N)C[C@@H]1C [Example 412, 2-(((2S,4S,5R)-5-fluoro-1-((R)-2-hydroxypropanoyl)-2-methylpiperidin-4-yl)oxy)-5-(4-((4-(4-(oxetan-3-yl)piperazin-1-yl)phenyl)amino)-1,3,5-triazin-2-yl)benzonitrile] | 43 | ≥ 1000 | 202
N#Cc1cc(-c2ncnc(Nc3ccc(N4CCN(C5COC5)CC4)cc3)n2)ccc1O[C@H]1CCN(C(=O)c2cccc(=O)[nH]2)C[C@H]1F [Example 413, 2-(((3R,4S)-3-fluoro-1-(6-oxo-1,6-dihydropyridine-2-carbonyl)piperidin-4-yl)oxy)-5-(4-((4-(4-(oxetan-3-yl)piperazin-1-yl)phenyl)amino)-1,3,5-triazin-2-yl)benzonitrile] | 3 | 109 | 2
N#Cc1cc(-c2ncnc(Nc3ccc(N4CCN(C5COC5)CC4)cc3)n2)ccc1O[C@H]1CCN(C(=O)C2CNC(=O)N2)C[C@H]1F (stereo partly drawn) [Example 414, 2-(((3R,4S)-3-fluoro-1-(2-oxoimidazolidine-4-carbonyl)piperidin-4-yl)oxy)-5-(4-((4-(4-(oxetan-3-yl)piperazin-1-yl)phenyl)amino)-1,3,5-triazin-2-yl)benzonitrile] | 3 | 163 | 3
